Results: ChEMBL document CHEMBL5625225, “Vinylphosphonate-based cyclic dinucleotides enhance STING-mediated cancer immunotherapy” (Eur J Med Chem, 2023)
The source made the active and inactive calls. The calls are words filed in the database; no cut-off is given here.

Assays:
4T1 [1] = experiment: Antitumor immunity against mouse 4T1 cells xenografted in BALB/c syngeneic mouse model assessed as reduction in tumor volume measured upto 22 days administered as IT(Intratumoral) dose; type: functional; conditions: time <= 22.0 day
4T1 [2] = experiment: Antitumor immunity against mouse 4T1 cells xenografted in BALB/c syngeneic mouse model assessed as increase in AH1positive CD8 T cell level at 2 mg/kg, IT(Intratumoral) measured upto 22 days; type: functional, organism-based; conditions: time <= 22.0 day
[3] = target: T1, Stimulator of interferon genes protein (Homo sapiens, UniProt Q86WV6); experiment: Agonist activity at wild type STING (unknown origin) expressed in HEK293T cells preincubated for 30 mins followed by washout and measured after 6.5 hrs by Bright-glo luciferase assay; type: cell-based
Target sequence in this assay (Q86WV6 whole entry): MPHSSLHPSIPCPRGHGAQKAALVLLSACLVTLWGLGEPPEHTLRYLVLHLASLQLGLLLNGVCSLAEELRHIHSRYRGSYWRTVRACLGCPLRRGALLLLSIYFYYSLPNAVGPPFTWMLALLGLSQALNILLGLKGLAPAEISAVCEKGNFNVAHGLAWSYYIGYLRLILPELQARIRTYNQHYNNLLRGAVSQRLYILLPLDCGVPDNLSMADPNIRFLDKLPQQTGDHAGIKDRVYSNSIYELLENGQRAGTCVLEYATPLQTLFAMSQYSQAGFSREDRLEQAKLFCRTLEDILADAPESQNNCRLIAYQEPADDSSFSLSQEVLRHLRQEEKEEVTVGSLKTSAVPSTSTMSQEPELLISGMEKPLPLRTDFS

[4] = target: T1, Stimulator of interferon genes protein; experiment: Agonist activity at wild type STING (unknown origin) expressed in HEK293T cells measured after 7 hrs by Bright-glo luciferase assay; type: cell-based
Target sequence in this assay (Q86WV6 whole entry): as above

[5] = Induction of cytokine production in human PBMC cells assessed as IFN-gamma level incubated for 60 mins followed by washout and measured after 15 hrs; type: functional, cell-based
[6] = Induction of cytokine production in human PBMC cells assessed as TNF-alpha level incubated for 60 mins followed by washout and measured after 15 hrs; type: functional, cell-based
[7] = Induction of cytokine production in human PBMC cells assessed as IFN-alpha level incubated for 60 mins followed by washout and measured after 15 hrs; type: functional, cell-based
[8] = Stability in human plasma assessed as half life at 5 uM measured upto 120 mins by UPLC/MS analysis; type: ADME, cell-free
[9] = Stability in mouse plasma assessed as half life at 5 uM measured upto 120 mins by UPLC/MS analysis; type: ADME, cell-free
4T1 [10] = experiment: Antitumor immunity against mouse 4T1 cells xenografted in BALB/c syngeneic mouse model assessed as tumor growth inhibition at 2 mg/kg, IT(Intratumoral) measured upto 22 days relative to control; type: functional; conditions: 4T1, 528 h, time <= 22 day, read-out: TGI
4T1 [11] = experiment: Antitumor immunity against mouse 4T1 cells xenografted in BALB/c syngeneic mouse model assessed as tumor growth inhibition at 0.67 mg/kg, IT(Intratumoral) measured upto 22 days relative to control; type: functional; conditions: 4T1, 528 h, time <= 22 day, read-out: TGI
[12] = Toxicity in BALB/c mouse assessed effect on body weight change at 0.22 to 2 mg/kg, IT(Intratumoral) measured upto 22 days; type: organism-based; conditions: in vivo, other, 528 h, dose 0.22-2 mg/kg, time < 22 day
[13] = Toxicity in BALB/c mouse assessed effect on animal survival at 0.22 to 2 mg/kg, IT(Intratumoral) measured upto 22 days; type: organism-based; conditions: in vivo, other, 528 h, dose 0.22-2 mg/kg, time < 22 day
[14] = Toxicity in BALB/c mouse assessed effect on drug tolerance at 0.22 to 2 mg/kg, IT(Intratumoral) measured upto 22 days; type: organism-based; conditions: in vivo, other, 528 h, dose 0.22-2 mg/kg, time < 22 day
[15] = target: T1, Stimulator of interferon genes protein; experiment: Agonist activity at STING R232 mutant (unknown origin) expressed in digitonin -permeabilized HEK293T cells preincubated for 30 mins followed by washout and measured after 5 hrs by Bright-glo luciferase assay; type: cell-based
Target sequence in this assay (Q86WV6 whole entry, looked up, stated change not applied): as the sequence (Q86WV6 whole entry) above

[16] = target: Stimulator of interferon genes protein (Homo sapiens, UniProt Q86WV6, G230A/R293Q/R71H); experiment: Agonist activity at STING R71H/G230A/R293Q mutant (unknown origin) expressed in digitonin -permeabilized HEK293T cells preincubated for 30 mins followed by washout and measured after 5 hrs by Bright-glo luciferase assay; type: cell-based
[17] = Agonist activity at STING R232H mutant (unknown origin) expressed in digitonin -permeabilized HEK293T cells preincubated for 30 mins followed by washout and measured after 5 hrs by Bright-glo luciferase assay; type: cell-based; conditions: Homo sapiens, HEK-293T
[18] = target: Stimulator of interferon genes protein (Homo sapiens, UniProt Q86WV6, G230A/R293Q); experiment: Agonist activity at STING G230A/R293Q mutant (unknown origin) expressed in digitonin -permeabilized HEK293T cells preincubated for 30 mins followed by washout and measured after 5 hrs by Bright-glo luciferase assay; type: cell-based
[19] = target: Stimulator of interferon genes protein (Homo sapiens, UniProt Q86WV6, R293Q); experiment: Agonist activity at STING R293Q mutant (unknown origin) expressed in digitonin -permeabilized HEK293T cells preincubated for 30 mins followed by washout and measured after 5 hrs by Bright-glo luciferase assay; type: cell-based
[20] = Toxicity in BALB/c mouse assessed effect on body weight change at 0.67 to 6 mg/kg, IT(Intratumoral) measured upto 22 days; type: organism-based; conditions: in vivo, other, 528 h, dose 0.67-6 mg/kg, time < 22 day
[21] = Toxicity in BALB/c mouse assessed effect on animal survival at 0.67 to 6 mg/kg, IT(Intratumoral) measured upto 22 days; type: organism-based; conditions: in vivo, other, 528 h, dose 0.67-6 mg/kg, time < 22 day
[22] = Toxicity in BALB/c mouse assessed effect on drug tolerance at 0.67 to 6 mg/kg, IT(Intratumoral) measured upto 22 days; type: organism-based; conditions: in vivo, other, 528 h, dose 0.67-6 mg/kg, time < 22 day
[23] = Toxicity in BALB/c mouse assessed body weight loss at 6 mg/kg, IT(Intratumoral) measured after 7 days relative to control; type: organism-based; conditions: in vivo, other, 168 h, time 7 day
[24] = test system: Stimulator of interferon genes protein (Homo sapiens), Q86WV6 [UNDEFINED MUTATION]; conditions: filed as agonist
Description: Binding affinity to STING R232 mutant (unknown origin) assessed as change in melting temperature by differential scanning fluorimetry analysis

[25] = test system: Stimulator of interferon genes protein (Homo sapiens), Q86WV6 [G230A,R293Q]; conditions: filed as agonist
Stimulator of interferon genes protein (Homo sapiens), Q86WV6 [G230A,R293Q], sequence (Q86WV6 whole entry G230A/R293Q): as the sequence (Q86WV6 whole entry) above, with G230A, R293Q counted along it
Description: Binding affinity to STING G230A/R293Q mutant (unknown origin) assessed as change in melting temperature by differential scanning fluorimetry analysis

Stimulator of interferon genes protein (Homo sapiens, UniProt Q86WV6, R293Q), sequence (Q86WV6 whole entry R293Q): as the sequence (Q86WV6 whole entry) above, with R293Q counted along it
Stimulator of interferon genes protein (Homo sapiens, UniProt Q86WV6, G230A/R293Q), sequence (Q86WV6 whole entry G230A/R293Q): as the sequence (Q86WV6 whole entry) above, with G230A, R293Q counted along it
Stimulator of interferon genes protein (Homo sapiens), Q86WV6 [UNDEFINED MUTATION], sequence (Q86WV6 whole entry, looked up, stated change not applied): as the sequence (Q86WV6 whole entry) above
Stimulator of interferon genes protein (Homo sapiens, UniProt Q86WV6, G230A/R293Q/R71H), sequence (Q86WV6 whole entry R71H/G230A/R293Q): as the sequence (Q86WV6 whole entry) above, with R71H, G230A, R293Q counted along it

CC1(C(=O)OCOP2(=O)/C=C/[C@H]3O[C@@H](n4cnc5c(N)ncnc54)[C@H](F)[C@@H]3OP(=O)(OCOC(=O)C3(C)CCCCC3)OC[C@H]3O[C@@H](n4cnc5c(N)ncnc54)[C@H](F)[C@@H]3O2)CCCCC1 (stereo in doubt; 14C) [listing 1 of 2 here]
Activity (4T1 [1]): Dose-Dependent Effect | Activity (4T1 [2]): Active

CC1(C(=O)OCOP2(=O)/C=C/[C@H]3O[C@@H](n4cnc5c(N)ncnc54)[C@H](F)[C@@H]3OP(=O)(OCOC(=O)C3(C)CCCCC3)OC[C@H]3O[C@@H](n4cnc5c(N)ncnc54)[C@H](F)[C@@H]3O2)CCCCC1 (stereo in doubt; 14C) [listing 2 of 2 here]
EC50 [3]: 30 nM | EC50 [4]: 13 nM | EC50 ([5]; pbmc): 70 nM | EC50 ([6]; pbmc): 60 nM | EC50 ([7]; pbmc): 110 nM | half-life at 5 µM [8]: 2.17 h | half-life at 5 µM [9]: 0.35 h | inhibition in vivo at 2 mg/kg (4T1 [10]): 80% | inhibition in vivo at 0.67 mg/kg (4T1 [11]): 70% | Activity [12]: Non-Toxic | Activity [13]: Non-Toxic | Activity [14]: Non-Toxic

Nc1ncnc2c1ncn2[C@@H]1O[C@@H]2/C=C\P(=O)(O)O[C@H]3[C@@H](F)[C@H](n4cnc5c(N)ncnc54)O[C@@H]3COP(=O)(O)O[C@H]2[C@H]1F
EC50 [15]: 30 nM | EC50 [16]: 100 nM | EC50 [17]: 12000 nM | EC50 [18]: 100 nM | EC50 [19]: 1050 nM | EC50 [3]: 50100 nM | EC50 [4]: 21500 nM | EC50 ([5]; Homo sapiens, PBMC): 36000 nM | EC50 ([6]; Homo sapiens, PBMC): 76000 nM | EC50 ([7]; Homo sapiens, PBMC): 110000 nM | Activity (4T1 [1]): Dose-Dependent Effect | Activity [20]: Non-Toxic | Activity [21]: Non-Toxic | Activity [22]: Non-Toxic | Activity [23]: 3% | ΔTm [24]: 6 °C | ΔTm [25]: 11.3 °C
